Columns and labels:
Assay in all cases: CellTiter-Glo luminescent cell viability assay
Type in all cases: cell-based
A549 = conditions: lung cancer (A549), increasing concentrations, 48 h
Description: (§1) FIGS. 3A-F: i14G1-10 and i14G1-12 inhibit mRNA translation and sensitize cell survival of eIF4G1 and eIF1 depleted cells. (3A) In-vitro translation using rabbit reticulocyte lysate which was pre-incubated with different concentrations of i14G1-10 or i14G1-12 for 10 minutes followed by the addition of capped firefly luciferase mRNA. After 90 minutes at 30° C., the luminescence signal was measured and the IC50 was calculated. The data represents mean±SEM of 6 independent repeats. (3B) HEK293T cells were treated with DMSO (vehicle control), and sub-cytotoxic concentrations of i14G1-10 (20 μM) and i14G1-12 (10 μM) for 3h. Cell lysates were then subjected to sucrose gradient sedimentation to obtain polysome profiles. (3C) HEK293T cells were treated with the indicated concentrations of i14G1-10 and i14G-12 for 3 h, followed by the addition of puromycin (10 μg/ml) for 5 minutes, after which cells were lysed and analyzed by western blot using an anti-puromycin antibody and anti-GAPDH antibody that serves as a loading control. The graph represents the mean±SEM chemiluminescence signal intensity of puromycin labeling normalized to GAPDH of 3 independent experiments. The calculated IC-50 is shown. (3D) HEK293T cells were transfected with either control or eIF4G1 siRNA in the absence or presence of eIF4G1 expression plasmid. As the eIF4G1 siRNA pool is directed against the 3′UTR, which is absent from the eIF4G1 expression plasmid, the exogenous eIF4G1 is resistant to the siRNA. 48 h after transfection, cells were treated with the indicated concentrations of i14G1-10 and i14G-12 for 3 h, followed by a 5 minutes puromycin pulse as described in 3C. The graph represents the mean±SEM chemiluminescence signal intensity of puromycin labeling normalized to GAPDH of 3 independent experiments. The calculated IC-50 is shown. (3E) The graphs represent cell viability of the indicated cell lines in the presence of increasing concentrations of i14G1-10 and i14G1, analyzed by Luminescent Cell Viability Assay. (3F) Pie charts showing the cell cycle distribution of HEK293T cells treated with DMSO, i14G1-10 and i14G1-12.
(§2) The indicated cell lines in 96-well plates were treated with increasing concentrations of i14G1-10 and i14G1-12. After 48 h, cells were subjected to cell viability measurement using CellTiter-Glo Luminescent Assay (Cat no. G7571, Promega).
(§3) This was true in breast cancer (MCF7), lung cancer (A549), colorectal cancer (HCT116), ovarian cancer (OVCAR8) and in a bone cancer sarcoma cell line (U20S). To examine whether the growth defect is associated with cell cycle progression, control and drug treated cells were subjected to DNA staining by propidium iodide and then a flow cytometry analysis to determine their distribution in the sub-G1 (dead cells), G1, S and G2/M phases of the cell cycle.

HCT116 = conditions: colorectal cancer (HCT116), increasing concentrations, 48 h
Description: as §1, §2, §3

U20S = conditions: bone cancer sarcoma cell line (U20S), increasing concentrations, 48 h
Description: as §1, §2, §3

OVCAR8 = conditions: ovarian cancer (OVCAR8), increasing concentrations, 48 h
Description: as §1, §2, §3

MCF7 = conditions: breast cancer (MCF7), increasing concentrations, 48 h
Description: as §1, §2, §3

Measured: growth/survival

O=C(/C=C/Sc1ccc(C(F)(F)F)cn1)c1ccccc1 [i14G1-10]
inhibited the growth/survival: all assays above

Cn1ccnc1S/C(=C/C=C(C#N)C#N)c1ccc(Cl)cc1 [i14G1-12]
inhibited the growth/survival: all assays above

From patent US20250090510A1, “eIF4G1-eIF1 INHIBITORS AND USE THEREOF” (YEDA RESEARCH AND DEVELOPMENT CO. LTD., priority 2022, published 2025)
